IC50 data for 27 compounds are collected here from patent US20260042755A1, “GPR6 INVERSE AGONISTS” (MapLight Therapeutics, Inc., priority 2022, published 2026).

Bounds are passed on as bounds.

For one test, the target named is T1, GPR6 (Homo sapiens, UniProt P46095).
T1 construct: expressed in transfected cells; host or cells: CHO cells
The test can be described thus: GPR6 antagonist functional cAMP assay (LANCE Ultra cAMP TR-FRET, CHO cells stably expressing GPR6). The format is cell-based. The note with it: CHO cells stably expressing GPR6, cAMP assay (Example 24). In short, it runs like this: (§1)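 Compounds, at 0.1% final DMSO, acted on the cells for 45 minutes at 37 °C in the presence of the phosphodiesterase inhibitor Ro 20-1724 (150 μM). After lysis and detection, plates were shaken 1 h at room temperature and emission at 665 nm was recorded. Normalized data gave IC50 values.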

The next test has as its target T2, GPR3 (Homo sapiens, UniProt P46089).
T2 construct: expressed in transfected cells; host or cells: CHO cells
The test can be described thus: GPR3 antagonist functional cAMP assay (LANCE Ultra cAMP TR-FRET, CHO cells stably expressing GPR3). The settings on record: CHO cells stably expressing GPR3, cAMP assay (Example 24). The format is cell-based. A digest of the protocol:
as §1
A general note: Cyclic AMP is a second messenger, typically raised through Gs and lowered through Gi signalling.

T2 sequence (P46089 whole entry, species assumed): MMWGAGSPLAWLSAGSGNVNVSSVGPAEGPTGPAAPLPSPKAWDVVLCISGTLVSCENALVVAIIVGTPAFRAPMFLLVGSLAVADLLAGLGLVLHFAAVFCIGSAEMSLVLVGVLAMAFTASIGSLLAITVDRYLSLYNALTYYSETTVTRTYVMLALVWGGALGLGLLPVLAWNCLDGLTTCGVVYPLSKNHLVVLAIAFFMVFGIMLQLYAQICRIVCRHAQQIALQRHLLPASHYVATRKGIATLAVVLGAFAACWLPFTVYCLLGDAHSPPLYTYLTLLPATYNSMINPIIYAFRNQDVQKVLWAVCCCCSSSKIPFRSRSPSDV
T1 sequence (P46095 whole entry): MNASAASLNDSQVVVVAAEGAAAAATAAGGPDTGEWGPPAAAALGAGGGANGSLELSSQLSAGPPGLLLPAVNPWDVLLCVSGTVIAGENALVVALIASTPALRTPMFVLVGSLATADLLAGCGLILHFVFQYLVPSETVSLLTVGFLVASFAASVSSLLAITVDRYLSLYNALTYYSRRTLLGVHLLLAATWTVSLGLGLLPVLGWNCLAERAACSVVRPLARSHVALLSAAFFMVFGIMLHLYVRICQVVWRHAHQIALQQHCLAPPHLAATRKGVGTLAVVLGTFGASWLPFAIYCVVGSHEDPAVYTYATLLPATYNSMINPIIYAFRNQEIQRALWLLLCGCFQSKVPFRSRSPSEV

Regarding `CC(=O)N1CC=C(c2nc3c(nc2N2CCC(Oc4ccc(F)cc4F)CC2)CCN(C(C)=O)C3)C1` [Compound 72, 1-(3-{6-acetyl-2-[4-(2,4-difluorophenoxy)piperidin-1-yl]-5H,6H,7H,8H-pyrido[3,4-b]pyrazin-3-yl}-2,5-dihydro-1H-pyrrol-1-yl)ethan-1-one], the IC50 at GPR6 and at GPR3 was 1000 to 30000 nM throughout.

Turning to `CC(=O)N1CCc2nc(N3CCC(Oc4ccc(F)cc4F)CC3)c(-c3cnn(CCC#N)c3)nc2C1` [Compound 73, 3-(4-{6-acetyl-2-[4-(2,4-difluorophenoxy)piperidin-1-yl]-5H,6H,7H,8H-pyrido[3,4-b]pyrazin-3-yl}-1H-pyrazol-1-yl)propanenitrile], the IC50 – broadly, the point on the concentration scale where inhibition reaches its midpoint – at GPR6 lay within 100 to 1000 nM; at GPR3, 1000 to 30000 nM.

Take `COCCn1cc(-c2nc3c(nc2N2CCC(Oc4ccc(F)cc4F)CC2)CCN(C(C)=O)C3)cn1` [Compound 74, 1-{2-[4-(2,4-difluorophenoxy)piperidin-1-yl]-3-[1-(2-methoxyethyl)-1H-pyrazol-4-yl]-5H,6H,7H,8H-pyrido[3,4-b]pyrazin-6-yl}ethan-1-one]: the figures for the IC50 against GPR6 and at GPR3 were 100 to 1000 nM and 1000 to 30000 nM, respectively.

Consider `CC(=O)N1CCc2nc(N3CCC(Oc4ccc(F)cc4F)CC3)c(-c3nccs3)nc2C1` [Compound 75, 1-{2-[4-(2,4-difluorophenoxy)piperidin-1-yl]-3-(1,3-thiazol-2-yl)-5H,6H,7H,8H-pyrido[3,4-b]pyrazin-6-yl}ethan-1-one], for which the IC50 against GPR6 and against GPR3 was 1000 to 30000 nM each time.

As for `CC(=O)N1CCc2nc(N3CCC(Oc4ccc(F)cc4F)CC3)c(-c3cnn(-c4ccccc4)c3)nc2C1` [Compound 76, 1-{2-[4-(2,4-difluorophenoxy)piperidin-1-yl]-3-(1-phenyl-1H-pyrazol-4-yl)-5H,6H,7H,8H-pyrido[3,4-b]pyrazin-6-yl}ethan-1-one], the values for the IC50 on GPR6 and against GPR3 were 100 to 1000 nM and 1000 to 30000 nM, respectively.

In the case of `CC(=O)N1CCc2nc(N3CCC(Oc4ccc(F)cc4F)CC3)c(-c3cnn(C4COC4)c3)nc2C1` [Compound 77, 1-{2-[4-(2,4-difluorophenoxy)piperidin-1-yl]-3-[1-(oxetan-3-yl)-1H-pyrazol-4-yl]-5H,6H,7H,8H-pyrido [3,4-b]pyrazin-6-yl}ethan-1-one], the figures for the IC50 against GPR6 and against GPR3 were 100 to 1000 nM and 1000 to 30000 nM, respectively.

Regarding `CC(=O)N1CCc2nc(N3CCC(Oc4ccc(F)cc4F)CC3)c(-c3ccn(C)c(=O)c3)nc2C1` [Compound 78, 4-{6-acetyl-2-[4-(2,4-difluorophenoxy)piperidin-1-yl]-5H,6H,7H,8H-pyrido[3,4-b]pyrazin-3-yl}-1-methyl-1,2-dihydropyridin-2-one], the IC50 against GPR6 and against GPR3 was 1000 to 30000 nM throughout.

For the compound `CC(=O)N1CCc2nc(N3CCC(Oc4ccc(F)cc4F)CC3)c(-c3ccccn3)nc2C1` [Compound 79, 1-{2-[4-(2,4-difluorophenoxy)piperidin-1-yl]-3-(pyridin-2-yl)-5H,6H,7H,8H-pyrido[3,4-b]pyrazin-6-yl}ethan-1-one], the IC50 at GPR6 and on GPR3 was 1000 to 30000 nM each time.

Consider `COc1cccnc1-c1nc2c(nc1N1CCC(Oc3ccc(F)cc3F)CC1)CCN(C(C)=O)C2` [Compound 80, 1-{2-[4-(2,4-difluorophenoxy)piperidin-1-yl]-3-(3-methoxypyridin-2-yl)-5H,6H,7H,8H-pyrido[3,4-b]pyrazin-6-yl}ethan-1-one], for which the figures for the IC50 against GPR6 and against GPR3 were not below 30000 nM and 1000 to 30000 nM, respectively.

Regarding `CC(=O)N1CCc2nc(N3CCC(Oc4ccc(F)cc4F)CC3)c(-c3cnn(CC#N)c3)nc2C1` [Compound 81, 2-(4-{6-acetyl-2-[4-(2,4-difluorophenoxy)piperidin-1-yl]-5H,6H,7H,8H-pyrido[3,4-b]pyrazin-3-yl}-1H-pyrazol-1-yl)acetonitrile], the half-inhibitory concentration (IC50) was 100 to 1000 nM against GPR6 and 1000 to 30000 nM on GPR3.

`CC(=O)N1CCc2nc(N3CCC(Oc4ccc(F)cc4F)CC3)c(-c3cnn(C4CS(=O)(=O)C4)c3)nc2C1` [Compound 82, 3-(4-{6-acetyl-2-[4-(2,4-difluorophenoxy)piperidin-1-yl]-5H,6H,7H,8H-pyrido[3,4-b]pyrazin-3-yl}-1H-pyrazol-1-yl)-1λ^6-thietane-1,1-dione]: the IC50 against GPR6 and on GPR3 was 1000 to 30000 nM in each case.

Consider `CC(=O)N1CCc2nc(N3CCC(Oc4ccc(F)cc4F)CC3)c(-c3cnc[nH]3)nc2C1` [Compound 84, 1-{2-[4-(2,4-difluorophenoxy)piperidin-1-yl]-3-(1H-imidazol-5-yl)-5H,6H,7H,8H-pyrido[3,4-b]pyrazin-6-yl}ethan-1-one], for which the IC50 at GPR6 and against GPR3 was 1000 to 30000 nM throughout.

In the case of `Fc1ccc(OC2CCN(c3nc4ccncc4nc3-c3ccn[nH]3)CC2)c(F)c1` [Compound 85, 4-(2,4-difluorophenoxy)-1-[3-(1H-pyrazol-5-yl)pyrido[3,4-b]pyrazin-2-yl]piperidine], the IC50 against GPR6 and against GPR3 was 1000 to 30000 nM throughout.

Regarding `COc1cccc(-c2nc3c(nc2N2CCC(Oc4ccc(F)cc4F)CC2)CCN(C(C)=O)C3)n1` [Compound 86, 1-(2-(4-(2,4-difluorophenoxy)piperidin-1-yl)-3-(6-methoxypyridin-2-yl)-7,8-dihydropyrido[3,4-b]pyrazin-6(5H)-yl)ethan-1-one], the IC50 at GPR6 is 100 to 1000 nM; against GPR3, 1000 to 30000 nM.

With `COc1cncc(-c2nc3c(nc2N2CCC(Oc4ccc(F)cc4F)CC2)CCN(C(C)=O)C3)n1` [Compound 87, 1-{2-[4-(2,4-difluorophenoxy)piperidin-1-yl]-3-(6-methoxypyrazin-2-yl)-5H,6H,7H,8H-pyrido[3,4-b]pyrazin-6-yl}ethan-1-one], the IC50 at GPR6 was 100 to 1000 nM; on GPR3 it was 1000 to 30000 nM.

Turning to `CC(=O)N1CCc2nc(N3CCC(Oc4ccc(F)cc4F)CC3)c(-c3cnn(CCO)c3)nc2C1` [Compound 88, 1-{2-[4-(2,4-difluorophenoxy)piperidin-1-yl]-3-[1-(2-hydroxyethyl)-1H-pyrazol-4-yl]-5H,6H,7H,8H-pyrido[3,4-b]pyrazin-6-yl}ethan-1-one], the IC50 on GPR6 and against GPR3 was 1000 to 30000 nM in each case.

Take `CC(=O)N1CCc2nc(N3CCC(Oc4ccc(F)cc4F)CC3)c(-c3cnc4n3CCN(C)C4)nc2C1` [Compound 90, 1-(2-(4-(2,4-difluorophenoxy)piperidin-1-yl)-3-(7-methyl-5,6,7,8-tetrahydroimidazo[1,2-a]pyrazin-3-yl)-7,8-dihydropyrido[3,4-b]pyrazin-6(5H)-yl)ethan-1-one]: the IC50 against GPR6 and against GPR3 was 1000 to 30000 nM each time.

Take `CC(=O)N1CCC(c2nc3c(nc2N2CCC(Oc4ccc(F)cc4F)CC2)CCN(C(C)=O)C3)CC1` [Compound 91, 1-(4-(6-acetyl-2-(4-(2,4-difluorophenoxy)piperidin-1-yl)-5,6,7,8-tetrahydropyrido[3,4-b]pyrazin-3-yl)piperidin-1-yl)ethan-1-one]: the IC50 against GPR6 and on GPR3 was 1000 to 30000 nM throughout.

Take `COc1cncc(-c2nc3cnccc3nc2N2CC3(CC(Oc4ccc(F)cc4F)C3)C2)n1` [Compound 92, 2-(6-(2,4-difluorophenoxy)-2-azaspiro[3.3]heptan-2-yl)-3-(6-methoxypyrazin-2-yl)pyrido[3,4-b]pyrazine]: the values for the IC50 against GPR6 and at GPR3 were 1000 to 30000 nM and not below 30000 nM, respectively.

`COc1cncc(-c2nc3cnc(CO)cc3nc2N2CCN(Cc3ccc(F)cc3F)CC2)n1` [Compound 95, (2-(4-(2,4-difluorobenzyl)piperazin-1-yl)-3-(6-methoxypyrazin-2-yl)pyrido[3,4-b]pyrazin-7-yl)methanol]: the IC50 against GPR6 and against GPR3 was 1000 to 30000 nM throughout.

Take `Fc1ccc(OC2CCN(c3nc4ccncc4nc3-c3ncn[nH]3)CC2)c(F)c1` [Compound 96, 4-(2,4-difluorophenoxy)-1-[3-(1H-1,2,4-triazol-5-yl)pyrido[3,4-b]pyrazin-2-yl]piperidine]: the IC50 against GPR6 and at GPR3 was 1000 to 30000 nM in each case.

In the case of `Fc1ccc(OC2CCN(c3nc4cnccc4nc3-c3cnn(C4CCCCO4)c3)CC2)c(F)c1` (stereo not drawn) [Compound 97, 4-(2,4-difluorophenoxy)-1-{2-[1-(oxan-2-yl)-1H-pyrazol-4-yl]pyrido[3,4-b]pyrazin-3-yl}piperidine], the 50% inhibitory concentration (IC50) against GPR6 and against GPR3 was 1000 to 30000 nM throughout.

Regarding `CC(=O)N1CCc2nc(N3CCC(Oc4ccc(F)cc4F)CC3)c(-c3c(C)n[nH]c3C)nc2C1` [Compound 98, 1-{2-[4-(2,4-difluorophenoxy)piperidin-1-yl]-3-(3,5-dimethyl-1H-pyrazol-4-yl)-5H,6H,7H,8H-pyrido[3,4-b]pyrazin-6-yl}ethan-1-one], the IC50 against GPR6 and against GPR3 was not below 30000 nM each time.

`O=c1cccc(-c2nc3ccncc3nc2N2CCC(Oc3ccc(F)cc3F)CC2)[nH]1` [Compound 99, 6-{3-[4-(2,4-difluorophenoxy)piperidin-1-yl]pyrido[3,4-b]pyrazin-2-yl}-1,2-dihydropyridin-2-one]: the IC50 on GPR6 and against GPR3 was 1000 to 30000 nM throughout.

In the case of `Fc1ccc(OC2CCN(c3nc4cnccc4nc3-c3cn[nH]c3)CC2)c(F)c1` [Compound 100, 4-(2,4-difluorophenoxy)-1-[2-(1H-pyrazol-4-yl)pyrido[3,4-b]pyrazin-3-yl]piperidine], the IC50 at GPR6 lay in the range of 100 to 1000 nM; on GPR3 it was 1000 to 30000 nM.

Consider `CC(=O)N1CCc2nc(N3CCC(Oc4ccc(F)cc4F)CC3)c(-c3cccc(N4CCCC4)n3)nc2C1` [Compound 101, 1-{2-[4-(2,4-difluorophenoxy)piperidin-1-yl]-3-[6-(pyrrolidin-1-yl)pyridin-2-yl]-5H,6H,7H,8H-pyrido[3,4-b]pyrazin-6-yl}ethan-1-one], for which the IC50 against GPR6 and against GPR3 was 1000 to 30000 nM throughout.

As to `COc1cccc(-c2nc3cnccc3nc2N2CCC(Oc3ccc(F)cc3F)CC2)n1` [Compound 102, 2-{2-[4-(2,4-difluorophenoxy)piperidin-1-yl]pyrido[3,4-b]pyrazin-3-yl}-6-methoxypyridine], the IC50 at GPR6 was in the range of 100 to 1000 nM; against GPR3, 1000 to 30000 nM.
